“And” between values parts separate entries of the source, which are not always exact repeats. Equal values may be shown once.
How the values were obtained:
Experiment in all cases: CYP51 reconstitution assay
Format in all cases: biochemical
CaCYP51 G307S = biological target: T1, CaCYP51 G307S (Candida albicans, UniProt P10613, G307S)
T1 construct: made in house; host or cells: E. coli DH5α (pCWori+)
Experimental: (§1) Azole antifungal agents were added in 2.5 μl dimethyl sulfoxide, followed by 10 min of incubation at 37°C prior to assay initiation with 4 mM β-NADPH-Na4. The samples were then shaken for 15 min at 37°C. Sterol metabolites were recovered by extraction with ethyl acetate, followed by derivatization with 0.1 ml N,O-bis(trimethylsilyl)trifluoroacetamide (BSTFA)–trimethylchlorosilane (TMCS) (99:1) and 0.3 ml anhydrous pyridine (2 h at 80°C), prior to analysis by gas chromatography-mass spectrometry (GC-MS) ([52]). IC50 determinations were performed in duplicate.

CaCYP51 D278N+G464S = biological target: T2, CaCYP51 D278N+G464S (Candida albicans, UniProt P10613, D278N/G464S)
T2 construct: made in house; host or cells: E. coli DH5α (pCWori+)
Experimental: as §1

CaCYP51 G448E = biological target: T3, CaCYP51 G448E (Candida albicans, UniProt P10613, G448E)
T3 construct: made in house; host or cells: E. coli DH5α (pCWori+)
Experimental: as §1

CaCYP51 P230L = biological target: T4, CaCYP51 P230L (Candida albicans, UniProt P10613, P230L)
T4 construct: made in house; host or cells: E. coli DH5α (pCWori+)
Experimental: as §1

CaCYP51 R467K = biological target: T5, CaCYP51 R467K (Candida albicans, UniProt P10613, R467K)
T5 construct: made in house; host or cells: E. coli DH5α (pCWori+)
Experimental: as §1

CaCYP51 V488I = biological target: T6, CaCYP51 V488I (Candida albicans, UniProt P10613, V488I)
T6 construct: made in house; host or cells: E. coli DH5α (pCWori+)
Experimental: as §1

CaCYP51 G450E = biological target: T7, CaCYP51 G450E (Candida albicans, UniProt P10613, G450E)
T7 construct: made in house; host or cells: E. coli DH5α (pCWori+)
Experimental: as §1

CaCYP51 Y132H = biological target: T8, CaCYP51 Y132H (Candida albicans, UniProt P10613, Y132H)
T8 construct: made in house; host or cells: E. coli DH5α (pCWori+)
Experimental: as §1

CaCYP51 Wild type = biological target: T9, CaCYP51 Wild type (Candida albicans, UniProt P10613); conditions: Wild type
T9 construct: made in house; host or cells: E. coli DH5α (pCWori+)
Experimental: as §1

CaCYP51 V456I = biological target: T10, CaCYP51 V456I (Candida albicans, UniProt P10613, V456I)
T10 construct: made in house; host or cells: E. coli DH5α (pCWori+)
Experimental: as §1

CaCYP51 I471T = biological target: T11, CaCYP51 I471T (Candida albicans, UniProt P10613, I471T)
T11 construct: made in house; host or cells: E. coli DH5α (pCWori+)
Experimental: as §1

CaCYP51 Q474K = biological target: T12, CaCYP51 Q474K (Candida albicans, UniProt P10613, Q474K)
T12 construct: made in house; host or cells: E. coli DH5α (pCWori+)
Experimental: as §1

CaCYP51 S279F = biological target: T13, CaCYP51 S279F (Candida albicans, UniProt P10613, S279F)
T13 construct: made in house; host or cells: E. coli DH5α (pCWori+)
Experimental: as §1

CaCYP51 F126V = biological target: T14, CaCYP51 F126V (Candida albicans, UniProt P10613, F126V)
T14 construct: made in house; host or cells: E. coli DH5α (pCWori+)
Experimental: as §1

CaCYP51 F449Y = biological target: T15, CaCYP51 F449Y (Candida albicans, UniProt P10613, F449Y)
T15 construct: made in house; host or cells: E. coli DH5α (pCWori+)
Experimental: as §1

CaCYP51 Y257H = biological target: T16, CaCYP51 Y257H (Candida albicans, UniProt P10613, Y257H)
T16 construct: made in house; host or cells: E. coli DH5α (pCWori+)
Experimental: as §1

CaCYP51 S405F = biological target: T17, CaCYP51 S405F (Candida albicans, UniProt P10613, S405F)
T17 construct: made in house; host or cells: E. coli DH5α (pCWori+)
Experimental: as §1

CaCYP51 K143R = biological target: T18, CaCYP51 K143R (Candida albicans, UniProt P10613, K143R)
T18 construct: made in house; host or cells: E. coli DH5α (pCWori+)
Experimental: as §1

CaCYP51 D278N = biological target: T19, CaCYP51 D278N (Candida albicans, UniProt P10613, D278N)
T19 construct: made in house; host or cells: E. coli DH5α (pCWori+)
Experimental: as §1

CaCYP51 G307S+G450E = biological target: T20, CaCYP51 G307S+G450E (Candida albicans, UniProt P10613, G307S/G450E)
T20 construct: made in house; host or cells: E. coli DH5α (pCWori+)
Experimental: as §1

CaCYP51 Y447H = biological target: T21, CaCYP51 Y447H (Candida albicans, UniProt P10613, Y447H)
T21 construct: made in house; host or cells: E. coli DH5α (pCWori+)
Experimental: as §1

CaCYP51 Y132F = biological target: T22, CaCYP51 Y132F (Candida albicans, UniProt P10613, Y132F); conditions: mean ± SD, duplicate
T22 construct: made in house; host or cells: E. coli DH5α (pCWori+)
Experimental: as §1

CaCYP51 F145L = biological target: T23, CaCYP51 F145L (Candida albicans, UniProt P10613, F145L)
T23 construct: made in house; host or cells: E. coli DH5α (pCWori+)
Experimental: as §1

CaCYP51 V437I = biological target: T24, CaCYP51 V437I (Candida albicans, UniProt P10613, V437I)
T24 construct: made in house; host or cells: E. coli DH5α (pCWori+)
Experimental: as §1

CaCYP51 G464S = biological target: T25, CaCYP51 G464S (Candida albicans, UniProt P10613, G464S)
T25 construct: made in house; host or cells: E. coli DH5α (pCWori+)
Experimental: as §1

CaCYP51 Y118A = biological target: T26, CaCYP51 Y118A (Candida albicans, UniProt P10613, Y118A)
T26 construct: made in house; host or cells: E. coli DH5α (pCWori+)
Experimental: as §1

CaCYP51 Y132H+K143R = biological target: T27, CaCYP51 Y132H+K143R (Candida albicans, UniProt P10613, K143R/Y132H)
T27 construct: made in house; host or cells: E. coli DH5α (pCWori+)
Experimental: as §1

CaCYP51 Y132F+K143R = biological target: T28, CaCYP51 Y132F+K143R (Candida albicans, UniProt P10613, K143R/Y132F)
T28 construct: made in house; host or cells: E. coli DH5α (pCWori+)
Experimental: as §1

[1] = 0.25 h, 4 μM triazole, % of activity without triazole, read-out: Residual CYP51 activity (%) ± SD

T9 sequence (P10613 whole entry, looked up, natural form): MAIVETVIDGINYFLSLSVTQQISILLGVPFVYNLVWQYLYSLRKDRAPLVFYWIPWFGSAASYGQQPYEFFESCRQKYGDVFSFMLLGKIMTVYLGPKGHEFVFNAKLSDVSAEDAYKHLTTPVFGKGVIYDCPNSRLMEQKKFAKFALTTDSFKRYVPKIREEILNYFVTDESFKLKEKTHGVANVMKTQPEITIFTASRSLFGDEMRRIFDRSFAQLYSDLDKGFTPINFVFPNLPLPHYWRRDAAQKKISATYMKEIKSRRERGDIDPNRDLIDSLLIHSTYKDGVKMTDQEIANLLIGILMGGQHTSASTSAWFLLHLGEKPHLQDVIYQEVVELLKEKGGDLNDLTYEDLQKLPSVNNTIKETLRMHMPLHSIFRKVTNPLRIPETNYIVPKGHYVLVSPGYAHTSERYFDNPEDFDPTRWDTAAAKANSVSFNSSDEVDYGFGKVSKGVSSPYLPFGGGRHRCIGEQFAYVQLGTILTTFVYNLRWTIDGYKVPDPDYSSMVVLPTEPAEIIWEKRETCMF
T2 sequence (P10613 whole entry, looked up, stated change not applied): as the sequence (P10613 whole entry, looked up, natural form) above
T23 sequence (P10613 whole entry, looked up, stated change not applied): as the sequence (P10613 whole entry, looked up, natural form) above
T21 sequence (P10613 whole entry, looked up, stated change not applied): as the sequence (P10613 whole entry, looked up, natural form) above
T3 sequence (P10613 whole entry, looked up, stated change not applied): as the sequence (P10613 whole entry, looked up, natural form) above
T13 sequence (P10613 whole entry, looked up, stated change not applied): as the sequence (P10613 whole entry, looked up, natural form) above
T27 sequence (P10613 whole entry, looked up, stated change not applied): as the sequence (P10613 whole entry, looked up, natural form) above
T5 sequence (P10613 whole entry, looked up, stated change not applied): as the sequence (P10613 whole entry, looked up, natural form) above
T1 sequence (P10613 whole entry, looked up, stated change not applied): as the sequence (P10613 whole entry, looked up, natural form) above

`CC[C@@H]([C@H](C)O)n1ncn(-c2ccc(N3CCN(c4ccc(OC[C@@H]5CO[C@@](Cn6cncn6)(c6ccc(F)cc6F)C5)cc4)CC3)cc2)c1=O` [Posaconazole, posaconazole] was tested, and the remaining activity at 4 µM (CaCYP51 G307S; [1]) was 0.71 ± 0.04%, the IC50 (CaCYP51 G307S; mean ± SD, duplicate) was 288 ± 42 nM and the “fold increase in IC50 over wild-type enzyme” value (CaCYP51 D278N+G464S) was 4.8 fold. For the same molecule, the remaining activity at 4 µM (CaCYP51 D278N+G464S; [1]) was 15 ± 1.16%, the IC50 (CaCYP51 D278N+G464S; mean ± SD, duplicate) was 930 ± 9 nM and the remaining activity at 4 µM (CaCYP51 G448E; [1]) was 7.89 ± 0.29%. The IC50 (CaCYP51 G448E; mean ± SD, duplicate) was 542 ± 51 nM, the remaining activity at 4 µM (CaCYP51 P230L; [1]) was 0.21 ± 0.05% and the IC50 (CaCYP51 P230L; mean ± SD, duplicate) was 238 ± 2 nM. It also gave a remaining activity at 4 µM (CaCYP51 R467K; [1]) of 3.62 ± 0.09%, an IC50 (CaCYP51 R467K; mean ± SD, duplicate) of 380 ± 11 nM and a remaining activity at 4 µM (CaCYP51 V488I; [1]) of 2.11 ± 0.14%. The IC50 (CaCYP51 V488I; mean ± SD, duplicate) was 481 ± 52 nM, the remaining activity at 4 µM (CaCYP51 G450E; [1]) was 15.6 ± 0.21% and the IC50 (CaCYP51 G450E; mean ± SD, duplicate) was 908 ± 132 nM. The remaining activity at 4 µM (CaCYP51 Y132H; [1]) was 0.18 ± 0.06%, the IC50 (CaCYP51 Y132H; mean ± SD, duplicate) was 195 ± 3 nM and the remaining activity at 4 µM (CaCYP51 Wild type; [1]) was 0.66 ± 0.02%. For the same molecule, the IC50 (CaCYP51 Wild type; mean ± SD, duplicate, read-out: IC50) was 200 nM and 195 nM, the remaining activity at 4 µM (CaCYP51 V456I; [1]) was 6.66 ± 0.05% and the IC50 (CaCYP51 V456I; mean ± SD, duplicate) was 602 ± 17 nM. For the same molecule, the remaining activity at 4 µM (CaCYP51 I471T; [1]) was 7.71 ± 0.58%, the IC50 (CaCYP51 I471T; mean ± SD, duplicate) was 522 ± 64 nM and the remaining activity at 4 µM (CaCYP51 Q474K; [1]) was 3.23 ± 0.18%. For the same molecule, the IC50 (CaCYP51 Q474K; mean ± SD, duplicate) was 301 ± 17 nM, the remaining activity at 4 µM (CaCYP51 S279F; [1]) was 20.64 ± 0.1% and the IC50 (CaCYP51 S279F; mean ± SD, duplicate) was 912 ± 16 nM. It also gave a remaining activity at 4 µM (CaCYP51 F126V; [1]) of 0.1 ± 0.01%, an IC50 (CaCYP51 F126V; mean ± SD, duplicate) of 304 ± 70 nM and a remaining activity at 4 µM (CaCYP51 F449Y; [1]) of 5.42 ± 0.04%. It also gave an IC50 (CaCYP51 F449Y; mean ± SD, duplicate) of 366 ± 37 nM, a remaining activity at 4 µM (CaCYP51 Y257H; [1]) of 6.42 ± 0.59% and an IC50 (CaCYP51 Y257H; mean ± SD, duplicate) of 611 ± 17 nM. For the same molecule, the remaining activity at 4 µM (CaCYP51 S405F; [1]) was 9.38 ± 0.53%, the IC50 (CaCYP51 S405F; mean ± SD, duplicate) was 637 ± 54 nM and the remaining activity at 4 µM (CaCYP51 K143R; [1]) was 13.09 ± 0.02%. It also gave an IC50 (CaCYP51 K143R; mean ± SD, duplicate) of 789 ± 3 nM, a remaining activity at 4 µM (CaCYP51 D278N; [1]) of 14.8 ± 0.92% and an IC50 (CaCYP51 D278N; mean ± SD, duplicate) of 908 ± 20 nM. It also gave a remaining activity at 4 µM (CaCYP51 G307S+G450E; [1]) of 0.26 ± 0.11%, an IC50 (CaCYP51 G307S+G450E; mean ± SD, duplicate) of 312 ± 15 nM and a remaining activity at 4 µM (CaCYP51 Y447H; [1]) of 8.19 ± 3.58%. For the same molecule, the IC50 (CaCYP51 Y447H; mean ± SD, duplicate) was 439 ± 135 nM, the IC50 (CaCYP51 Y132F) was 343 ± 20 nM and the remaining activity at 4 µM (CaCYP51 F145L; [1]) was 1.37 ± 1.21%. The IC50 (CaCYP51 F145L; mean ± SD, duplicate) was 359 ± 18 nM, the remaining activity at 4 µM (CaCYP51 V437I; [1]) was 0.59 ± 0.2% and the IC50 (CaCYP51 V437I; mean ± SD, duplicate) was 319 ± 9 nM. The remaining activity at 4 µM (CaCYP51 G464S; [1]) was 0.54 ± 0.09%, the IC50 (CaCYP51 G464S; mean ± SD, duplicate) was 253 ± 24 nM and the remaining activity at 4 µM (CaCYP51 Y118A; [1]) was 0.46 ± 0.35%. For the same molecule, the IC50 (CaCYP51 Y118A; mean ± SD, duplicate) was 206 ± 4 nM, the remaining activity at 4 µM (CaCYP51 Y132H+K143R; [1]) was 0.74 ± 0.05% and the IC50 (CaCYP51 Y132H+K143R; mean ± SD, duplicate) was 196 ± 7 nM. For the same molecule, the IC50 (CaCYP51 Y132F+K143R) was 246 ± 24 nM and the remaining activity at 4 µM (CaCYP51 Y132F+K143R; 0.25 h, read-out: Residual CYP51 activity (%) ± SD) was 0.86 ± 0.11%.

Source: article PMC6496074, “The Evolution of Azole Resistance in Candida albicans Sterol 14α-Demethylase (CYP51) through Incremental Amino Acid Substitutions” (Antimicrobial Agents and Chemotherapy, 2019)
